The values below come from patent US20250340457A1, “SYSTEMS AND METHODS FOR EXTRACTION OF FLUORINATED HYDROCARBONS” (Khalifa University of Science and Technology, priority 2024, published 2025).

For data set [1] the following is noted: cited from earlier work.
For data set [2] the following is noted: 25° C.; cited from earlier work.
For data set [3], the system named is rat. The settings on record: cited from earlier work.
For data set [4] the following is noted: cited from earlier work. The source holds these as a separate data set.
Data set [5] can be described thus: Thermogravimetric analysis (onset decomposition temperature). Format: physicochemical. The source says:
FIG. 6B illustrates thermogravimetric profiles of TOPO, LauA, and TOPO: LauA (1:1), according to some embodiments. Thermogravimetric analysis is another essential solvent characterization method and is vital for identifying the maximum operational temperature range of a solvent. The onset decomposition temperature (Tonset) marks the start of a noticeable weight loss, indicating initial thermal degradation. Table 3 lists the onset temperatures for TOPO: LauA (1:1), and its thermogravimetric profile is shown in FIG. 6B along with the profiles of pure TOPO and lauric acid for comparison. Hydrogen bonding plays an important role in DES stability by reducing molecular volatility and increasing the energy needed for decomposition. […] This intermediate Tonset reflects the delicate balance of H-bonding strength in the DES that is affected from both the stability of the individual components and the new interactions they form when combined.

SMILES strings stand for the structures. Converted amounts (≈) assume the structure as drawn. Where two headings read alike, the source gives them in different places.

As to `O=S(=O)(O)C(F)(F)C(F)(F)C(F)(F)C(F)(F)C(F)(F)C(F)(F)C(F)(F)C(F)(F)F` [PFOS, perfluorooctane sulfonic acid], the serum elimination half-lives in data set [1] was 3.8 years.

As to `Cc1ccc(C(C)C)c(O)c1` [thymol], in data set [2], the inherent density is 0.967 g/mL.

For `C[N+](C)(C)CCO.[Cl-]` [choline chloride, reference compound], in data set [3] (oral), the “LD50 (oral, rat)” value was 3,900 mg/kg.

`CCCCCCCCP(=O)(CCCCCCCC)CCCCCCCC` [TOPO, trioctylphosphine oxide]: the water solubility in data set [4] was 0.15 µg/mL (≈ 0.388 µM). Moreover, the “Onset decomposition temperature (Tonset)” value in data set [5] was 281 °C. Further, in data set [3] (in vivo, po), the “LD50 (oral, rat)” value is 2,000 mg/kg.

In the case of `CCCCCCCCCCCC(=O)O` [Lauric acid, lauric acid], the water solubility in data set [4] was 0.4 µg/mL (≈ 2 µM). In data set [5], the “Onset decomposition temperature (Tonset)” value was 207 °C.

Consider `O=C(O)C(F)(F)C(F)(F)C(F)(F)C(F)(F)C(F)(F)C(F)(F)C(F)(F)F` [PFOA, perfluorooctanoic acid], for which the serum elimination half-lives in data set [1] is 5.4 years.
